Paper PMC5039624 (Scientific Reports, 2016)
Bridge positions count the residues as written; N and C are the ends. Peptide text beside a SMILES is read from it.

Assays:
Assay type in all cases: physicochemical
[1] = Liposome centrifugation assay, POPG liposomes; settings: LUVs extruded through 0.1 μm filters, 10 mM HEPES pH 7.4, 150 mM NaCl; 10 μM toxin, 1 h room temperature, 30 min at 100,000 g; unbound toxin in supernatant by RP-HPLC; fit to partition equilibrium equation
Description: (§1) To investigate whether the micelle-binding interface identified by NMR-CSM faithfully reports on the lipid-binding interface of the peptide we used a previously reported liposome centrifugation assay[30] to study the interaction between VSTx1 and phospholipids with different head groups. VSTx1 was incubated with liposomes of different composition, then the liposomes were pelleted using ultracentrifugation and the amount of unbound VSTx1 in the supernatant was determined using reverse-phase (RP) HPLC (Fig. 4a,b). Partition coefficients (Kp) for binding of VSTx1 to liposomes were calculated by fitting to the partition equilibrium equation (see Eqn (3) in Materials and Methods). The Kp for binding to 1-palmitoyl-2-oleoyl-sn-glycero-3-phosphoglycerol (POPG) liposomes was 2.4 × 10^5 while the Kp values for binding to POPC or 1-palmitoyl-2-oleoyl-sn-glycero-3-phosphoethanolamine (POPE) liposomes were close to 0 (both <10^2) (Fig. 4e).
Large unilamellar vesicles (LUVs) were prepared by drying lipids (POPG and/or POPC, 25 mg/mL) under nitrogen gas, drying the lipid pellet under vacuum, and resuspending the lipids by vortexing for 1 h in an aqueous buffer containing 10 mM HEPES pH 7.4, and 150 mM NaCl. Vesicles were extruded 20 times using 0.1 μm polycarbonate filters (Avanti Polar Lipids, Inc.). Aqueous solutions of the toxin (10 μM) were incubated with varying amounts of vesicles for 1 h at room temperature, then the vesicles were centrifuged for 30 min at 100,000 g before the toxin concentration in the aqueous phase was determined. Aqueous concentrations of VSTx1 were quantified by RP-HPLC using a monolithic C18 column (4.6 × 100 mm). The toxin was eluted with a linear gradient of 10–50% solvent B (0.046% TFA in acetonitrile) in solvent A (0.05% TFA in water) over 10 min at a flow rate of 3 ml/min. The partition coefficients (Kp) for the binding of VSTx1 to liposomes were calculated by fitting to the partition equilibrium equation: […]

[2] = Liposome centrifugation assay, POPC liposomes; settings: LUVs, 10 mM HEPES pH 7.4, 150 mM NaCl; 10 μM toxin, 1 h room temperature, 30 min at 100,000 g; supernatant by RP-HPLC; close to 0
Description: as §1, with “The Kp for binding to 1-palmitoyl-2-oleoyl-sn-glycero-3-phosphoglycerol (POPG) liposomes was 2.4 × 10^5 while the Kp values for binding to POPC or 1-palmitoyl-2-oleoyl-sn-glycero-3-phosphoethanolamine (POPE) liposomes were close to 0 (both <10^2) (Fig. 4e).” left out
(§2) Large unilamellar vesicles (LUVs) were prepared by drying lipids (POPG and/or POPC, 25 mg/mL) under nitrogen gas, drying the lipid pellet under vacuum, and resuspending the lipids by vortexing for 1 h in an aqueous buffer containing 10 mM HEPES pH 7.4, and 150 mM NaCl. […] Aqueous solutions of the toxin (10 μM) were incubated with varying amounts of vesicles for 1 h at room temperature, then the vesicles were centrifuged for 30 min at 100,000 g before the toxin concentration in the aqueous phase was determined. Aqueous concentrations of VSTx1 were quantified by RP-HPLC using a monolithic C18 column (4.6 × 100 mm). […]

[3] = Liposome centrifugation assay, POPE liposomes; settings: 10 μM toxin, 1 h room temperature, 30 min at 100,000 g, supernatant by RP-HPLC, close to 0
Description: as §1, with “The Kp for binding to 1-palmitoyl-2-oleoyl-sn-glycero-3-phosphoglycerol (POPG) liposomes was 2.4 × 10^5 while the Kp values for binding to POPC or 1-palmitoyl-2-oleoyl-sn-glycero-3-phosphoethanolamine (POPE) liposomes were close to 0 (both <10^2) (Fig. 4e).” left out
as §2

[4] = Liposome centrifugation assay, liposomes with POPG content reduced by 25%; settings: 10 mM HEPES pH 7.4, 150 mM NaCl, 10 μM toxin, 1 h room temperature, 30 min at 100,000 g, supernatant by RP-HPLC
Description: as §1, with “The Kp for binding to 1-palmitoyl-2-oleoyl-sn-glycero-3-phosphoglycerol (POPG) liposomes was 2.4 × 10^5 while the Kp values for binding to POPC or 1-palmitoyl-2-oleoyl-sn-glycero-3-phosphoethanolamine (POPE) liposomes were close to 0 (both <10^2) (Fig. 4e).” left out
as §2

## CSCC[C@@H]1NC(=O)[C@H](Cc2ccccc2)NC(=O)[C@H](CCCCN)NC(=O)CNC(=O)[C@@H](NC(=O)[C@H](CCC(=O)O)NC(=O)[C@@H](N)CO)CSSC[C@@H]2NC(=O)[C@@H]3CSSC[C@@H](C(=O)N[C@H](C(=O)N[C@@H](CC(C)C)C(=O)N[C@@H](C)C(=O)N[C@@H](CO)C(=O)N4CCC[C@H]4C(=O)N[C@@H](Cc4ccccc4)C(=O)O)C(C)C)NC(=O)[C@H](Cc4c[nH]c5ccccc45)NC(=O)[C@H](CCCCN)NC(=O)[C@H](Cc4c[nH]c5ccccc45)NC(=O)[C@H](CCCNC(=N)N)NC(=O)[C@H](CO)NC(=O)[C@H](CO)NC(=O)[C@H](CSSC[C@H](NC(=O)[C@H](CCCCN)NC(=O)[C@H](Cc4c[nH]c5ccccc45)NC1=O)C(=O)N[C@@H](CCCCN)C(=O)N[C@@H](CC(N)=O)C(=O)N[C@@H](CO)C(=O)N[C@@H](CC(N)=O)C(=O)N[C@@H](CC(=O)O)C(=O)N3)NC(=O)[C@H](C(C)C)NC(=O)[C@H](CC(C)C)NC(=O)[C@H](CC(=O)O)NC(=O)[C@H](CCCCN)NC2=O [VSTx1] (H-SECGKFMWKCKNSNDCCKDLVCSSRWKWCVLASPF-OH; disulfide 3-17, 10-22, 16-29)
[1]
  Partition coefficient (Kp) for binding to POPG liposomes: 2.4 × 10^5
[2]
  Partition coefficient (Kp) for binding to POPC liposomes: < 10^2
[3]
  Partition coefficient (Kp) for binding to POPE liposomes: < 10^2
[4]
  Partition coefficient (Kp), POPG content of liposomes reduced by 25%: 0.18 × 10^5
